Where “and” joins values, the source holds several entries; their conditions need not be identical. Equal values may be shown once. Entries after “also recorded” stand apart in the source; their conditions may differ.
Assays:
human NSCLC lines = test: Cytotox assays: chemotherapy dose response curves with or without EZH2 inhibitor, 4 days; format: cell-based
Protocol: Cell lines were dissociated, counted and plated at 5000 cells per well in flat bottom opaque tissue culture treated 96 well plates (CytoOne). Edge wells were filled with PBS. The following day, 2× drug diluted in media was added to each well such that the well then contained 100 ul media with 1× drug concentration. After 4 days, Cell Titer Glo™ (Promega) was added and luminescence was read on a BioTec plate reader to determine relative cell number in each well. Data were averaged for triplicate or quadruplicate technical replicates, normalized to the untreated wells and input into GraphPad Prism software to extrapolate IC50.
Cell lines were dissociated, counted and plated at 5000 cells per well in flat bottom opaque tissue culture treated 96 well plates (CytoOne). Edge wells were filled with PBS. The following day, 2× drug diluted in media was added to each well such that the well then contained 100 ul media with 1× drug concentration at the following doses: etoposide; 0, 0.1, 1, 3, 5, 7, 10, 50, 100, 500 μM, cisplatin; 0, 0.1, 1, 5, 10, 30, 70, 100, 500 μM, or doxorubicin; 0, 0.01, 0.1, 0.5, 1, 3, 5, 7, 10, 50 μM. […] Data were averaged for triplicate or quadruplicate technical replicates and normalized to the untreated wells. Results from three or four independent biological replicate experiments were input into […] PRISM™ software to extrapolate IC50 and s.e.m. of IC50 for a given cell line.

PC9 = test: Etoposide dose response curves in the presence of 5 μM cisplatin; format: cell-based, human; settings: PC9 (sensitized), combination with DZNep
Protocol: (§1) FIG. 25A is a Waterfall plot of cell line growth in 1 μM DZNep for 4 days compared to untreated cells, n=3-5 biological replicates, * indicates p<0.04, ** p<0.007. […] FIG. 25C is a pair of representative etoposide dose response curves performed in the presence of 5 μM cisplatin, the sensitized line PC9 (4.2-fold decrease, p<0.0001) and the protected line H23 (3.4-fold increase, p<0.0001) are shown.
(§2) Cell lines were dissociated, counted and plated at 5000 cells per well in flat bottom opaque tissue culture treated 96 well plates (CytoOne). Edge wells were filled with PBS. The following day, 2× drug diluted in media was added to each well such that the well then contained 100 ul media with 1× drug concentration at the following doses: etoposide; 0, 0.1, 1, 3, 5, 7, 10, 50, 100, 500 μM, cisplatin; 0, 0.1, 1, 5, 10, 30, 70, 100, 500 μM, or doxorubicin; 0, 0.01, 0.1, 0.5, 1, 3, 5, 7, 10, 50 μM. After 4 days, CELLTITER-GLO™ (Promega) was added and luminescence was read on a BioTec plate reader to determine relative cell number in each well. Data were averaged for triplicate or quadruplicate technical replicates and normalized to the untreated wells. Results from three or four independent biological replicate experiments were input into GRAPHPAD PRISM™ software to extrapolate IC50 and s.e.m. of IC50 for a given cell line.

H23 = test: as above; format: cell-based, human; settings: H23 (protected), combination with DZNep
Protocol: as §1, §2

H23 xenografts = test: Xenograft tumor growth in nude mice; format: in vivo, Foxn1nu (nude) mice; settings: H23, DZNep 1 mg/kg/day twice per week for 2 weeks (dosing scheme B)
Protocol: (§3) To determine if the protected and sensitized phenotypes could be observed in vivo, cells were transplanted subcutaneously, tumors allowed to initiate, and mice treated with etoposide and DZNep. 12 days after cell injection, tumor bearing mice were randomized into groups that received either etoposide (20 mg/kg/day) or placebo (corn oil) daily for five days. The cohorts were further subdivided into groups that also received DZNep, either 2 mg/kg/day twice during the first week (dosing scheme A), or 1 mg/kg/day twice during the first two weeks (dosing scheme B).
(§4) Cell lines were dissociated into single cells, counted and resuspended at 1×10^6 cells per 250 μL of 1:1 media/matrigel (BD). 8- to 16-week-old Foxn1nu (nude) mice (Harlan) were injected subcutaneously with 1×10^6 cells in four spots on flanks. Chemo and DZNep were administered from day 12 to day 17 post injections, Etoposide: 20 mg/kg/day i.p. in corn oil once per day for 5 consecutive days, and DZNep 2 mg/kg/day i.p. in corn oil twice per week for 1 week (dosing scheme A) OR 1 mg/kg/day i.p. in corn oil twice per week for 2 weeks (dosing scheme B). Tumor growth was measured every other day by caliper.
as §4, with “2-4” for “four”, “Etoposide” for “Chemo”, “injections; etoposide:” for “injections, Etoposide:”, “week, or” for “week (dosing scheme A) OR”, “weeks.” for “weeks (dosing scheme B).”, “caliper. All mouse experiments were approved by the CHB Animal Care and Use Committee and by the Dana-Farber Cancer Institute Institutional Animal Care and Use Committee, both accredited by AAALAC, and were performed in accordance with relevant institutional and national guidelines and regulations.” for “caliper.”

H157 xenografts = test: Xenograft tumor growth in nude mice; format: in vivo, Foxn1nu (nude) mice
Protocol: as §3, §4
as §4, with “2-4” for “four”, “Etoposide” for “Chemo”, “injections; etoposide:” for “injections, Etoposide:”, “week, or” for “week (dosing scheme A) OR”, “weeks.” for “weeks (dosing scheme B).”, “caliper. All mouse experiments were approved by the CHB Animal Care and Use Committee and by the Dana-Farber Cancer Institute Institutional Animal Care and Use Committee, both accredited by AAALAC, and were performed in accordance with relevant institutional and national guidelines and regulations.” for “caliper.”

H460 = test: 7AAD cell cycle flow cytometry, stably transduced lines; format: cell-based, human; settings: etoposide treated H460 shBrg1 and EGFR over-expression
Protocol: (§5) Cell lines were plated at 1.5×10^6 cells per 10 cm plate and treated with drug for 4 days. Cells were then dissociated, fixed with 100% ice cold Ethanol for at least 2 hours, incubated for 30 minutes with 1 mg/mL RNase A and resuspended in 20 μg/mL 7AAD. 30,000 events were collected on the BD Facscalibur™ and analyzed with the ModFit LT™ software. In cases where etoposide treated cells had such abnormal ploidy that ModFit LT™ was unable to correctly model the cell cycle, the data was analyzed manually on FlowJo™ software by setting the gates on the etoposide sample and copying them to the etoposide+DZNep and etoposide shEZH2 samples.
(§6) For 7AAD-cell cycle analysis, cell lines were plated at 1.5×10^6 cells per 10 cm plate and treated with drug for 4 days. Cells were then dissociated, fixed with 100% ice cold Ethanol for at least 2 hours, incubated for 30 minutes with 1 mg/mL DNase-free RNase A (Thermo) and resuspended in 20 μg/mL 7-Aminoactinomycin D (7AAD; Invitrogen). 30,000 events were collected on the BD FORTESSA™ and analyzed with the MODFIT LT™ software. Results from three to four independent biological replicate experiments were averaged for each cell line.

HCC15 = test: as above; format: cell-based, human
Protocol: as §5, §6

Question: For `Nc1nccc2c1ncn2[C@@H]1C=C(CO)[C@@H](O)[C@H]1O` [DZNep, 3-Deazaneplanocin A], which “cell lines more sensitive to etoposide in the presence of DZNep” value (human NSCLC lines; 1 μM DZNep, 4 days, panel of 29 (Example 1) or 26 (Example 2) lines) is on record?
Answer: Its value is 16 of the 29 and 14 of the 26.

Question: What about the “sensitivity to etoposide in the presence of DZNep, protected lines” value (human NSCLC lines; H23, H460 and H441, 1 μM DZNep, 4 days) of the same molecule?
Answer: The value was “less sensitive”.

Question: What about the “sensitivity to etoposide in the presence of DZNep, sensitized lines” value (human NSCLC lines; H157, HCC15, PC9, H157, A549, PC9, 1 μM DZNep, 4 days) of the same molecule?
Answer: Its value is “more sensitive”.

Question: And the “pattern of sensitized and protected cells with cisplatin combined with DZNep” value (human NSCLC lines; cis-platinum combined with DZNep)?
Answer: The value was “not observed”.

Question: What about the “decrease in etoposide IC50” value (PC9) of the same molecule?
Answer: The value was 4.2 fold.

Question: And the “increase in etoposide IC50” value (H23)?
Answer: The value was 3.4 fold.

Question: And the “sensitivity of xenografts to DZNep as a single therapy” value (H23 xenografts)?
Answer: Its value is “very sensitive; also recorded: sensitive”.

Question: And the “efficacy of dosing scheme B” value (H157 xenografts; H157, DZNep 1 mg/kg/day twice per week for 2 weeks)?
Answer: The value was “not as effective”.

Question: What about the “tumor burden, DZNep alone vs untreated/vehicle” value (H157 xenografts; H157 xenografts, DZNep 2 mg/kg/day twice in first week (dosing scheme A)) of the same molecule?
Answer: The value was “effective at reducing tumor burden; also recorded: weakly effective”.

Question: What about the “S phase change in response to DZNep” value (H460) of the same molecule?
Answer: The value was “enriched for S phase”.

Question: What about the “S phase change in response to DZNep” value (HCC15; etoposide treated HCC15 Brg1 over-expression) of the same molecule?
Answer: The value was “dramatically smaller accumulation in S phase; also recorded: did not accumulate in S phase”.

Question: What about the “S phase change in response to DZNep” value (HCC15; etoposide treated HCC15 shEGFR) of the same molecule?
Answer: Its value is “decrease in S phase; also recorded: no additional increase in S phase”.

— patent US9895390B2, “Methods and assays for combination treatment of cancer” (CHILDREN'S MEDICAL CENTER CORPORATION, priority 2012, dated 2018)
